Drawing on ChEMBL document CHEMBL3132769, “Fragment growing to retain or alter the selectivity of anchored kinase hinge-binding fragments” (Medchemcomm, 2014), this text covers inhibition for nine compounds.

In test [1] the target is T1, Aurora kinase C (Homo sapiens) (UniProt Q9UQB9).
T1 sequence (whole entry): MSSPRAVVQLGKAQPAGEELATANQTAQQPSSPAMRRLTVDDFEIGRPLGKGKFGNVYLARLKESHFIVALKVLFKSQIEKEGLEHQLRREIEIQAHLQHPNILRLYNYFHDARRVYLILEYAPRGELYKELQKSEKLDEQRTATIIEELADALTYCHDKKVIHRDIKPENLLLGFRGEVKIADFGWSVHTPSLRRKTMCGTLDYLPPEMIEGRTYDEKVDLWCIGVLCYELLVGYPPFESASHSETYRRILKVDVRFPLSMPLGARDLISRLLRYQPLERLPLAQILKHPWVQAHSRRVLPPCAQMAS
The experiment in a line: Inhibition of human full length AurC expressed in baculovirus assessed as substrate phosphorylation using fluorescence-labelled peptides as substrate at 0.2 uM after 90 mins by microfluidic peptide phosphorylation assay.

Test [2] deals with Hepatocyte growth factor receptor (Homo sapiens) (UniProt P08581). The settings on record: 0.1 uM.
Description: Inhibition of human MET cytoplasmic domain expressed in baculovirus assessed as substrate phosphorylation using fluorescence-labelled peptides as substrate at 0.1 uM after 90 mins by microfluidic peptide phosphorylation assay
For test [3], the target named is Epidermal growth factor receptor (Homo sapiens) (UniProt P00533). The experiment in a line: Inhibition of human EGFR catalytic domain expressed in baculovirus assessed as substrate phosphorylation using fluorescence-labelled peptides as substrate at 420 uM after 90 mins by microfluidic peptide phosphorylation assay.
Test [4] addresses Ribosomal protein S6 kinase alpha-4 (Homo sapiens) (UniProt O75676). The experiment in a line: Inhibition of human full length MSK2 expressed in baculovirus assessed as substrate phosphorylation using fluorescence-labelled peptides as substrate at 420 uM after 90 mins by microfluidic peptide phosphorylation assay.
Test [5] has as its target Mitogen-activated protein kinase 1 (Homo sapiens) (UniProt P28482). The test can be described thus: Inhibition of human full length ERK2 expressed in Escherichia coli cell assessed as substrate phosphorylation using fluorescence-labelled peptides as substrate at 420 uM after 90 mins by microfluidic peptide phosphorylation assay.
In test [6] the target is Cyclin-dependent kinase 2 (Homo sapiens) (UniProt P24941). The test can be described thus: Inhibition of human full length CDK2 expressed in baculovirus assessed as substrate phosphorylation using fluorescence-labelled peptides as substrate at 420 uM after 90 mins by microfluidic peptide phosphorylation assay.
Test [7] has as its target MAP/microtubule affinity-regulating kinase 3 (Homo sapiens) (UniProt P27448). The test can be described thus: Inhibition of human full length c-TAK1 expressed in Escherichia coli cell assessed as substrate phosphorylation using fluorescence-labelled peptides as substrate at 420 uM after 90 mins by microfluidic peptide phosphorylation assay.
The target in test [8] is Fibroblast growth factor receptor 4 (Homo sapiens) (UniProt P22455). The experiment in a line: Inhibition of human FGFR4 catalytic domain expressed in baculovirus assessed as substrate phosphorylation using fluorescence-labelled peptides as substrate at 95 uM after 90 mins by microfluidic peptide phosphorylation assay.
Test [9] concerns the target T2, Mitogen-activated protein kinase 12 (Homo sapiens) (UniProt P53778).
T2 sequence (whole entry): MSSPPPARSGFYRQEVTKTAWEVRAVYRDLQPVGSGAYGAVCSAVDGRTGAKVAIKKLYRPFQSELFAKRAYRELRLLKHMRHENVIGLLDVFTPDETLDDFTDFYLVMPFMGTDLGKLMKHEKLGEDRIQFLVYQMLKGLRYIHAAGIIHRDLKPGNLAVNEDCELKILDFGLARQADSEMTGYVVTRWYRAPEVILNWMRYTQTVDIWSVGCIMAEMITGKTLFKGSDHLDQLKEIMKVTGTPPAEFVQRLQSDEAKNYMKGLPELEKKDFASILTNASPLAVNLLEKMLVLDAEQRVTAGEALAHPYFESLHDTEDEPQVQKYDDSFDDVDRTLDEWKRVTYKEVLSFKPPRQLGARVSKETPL
The experiment in a line: Inhibition of human full length p38 gamma expressed in Escherichia coli cell assessed as substrate phosphorylation using fluorescence-labelled peptides as substrate at 95 uM after 90 mins by microfluidic peptide phosphorylation assay.

Test [10] deals with T2, Mitogen-activated protein kinase 12 (Homo sapiens). The test can be described thus: Inhibition of human full length p38 gamma expressed in Escherichia coli cell assessed as substrate phosphorylation using fluorescence-labelled peptides as substrate at 9 uM after 90 mins by microfluidic peptide phosphorylation assay.
Test [11] has as its target Mitogen-activated protein kinase 1 (Homo sapiens) (UniProt P28482). The experiment in a line: Inhibition of human full length ERK2 expressed in Escherichia coli cell assessed as substrate phosphorylation using fluorescence-labelled peptides as substrate at 9 uM after 90 mins by microfluidic peptide phosphorylation assay.
Test [12] concerns the target Casein kinase I isoform alpha (Homo sapiens) (UniProt P48729). The experiment in a line: Inhibition of human full length CSNK1A1 expressed in baculovirus assessed as substrate phosphorylation using fluorescence-labelled peptides as substrate at 9 uM after 90 mins by microfluidic peptide phosphorylation assay.
In test [13] the target is Casein kinase I isoform delta (Homo sapiens) (UniProt P48730). The experiment in a line: Inhibition of human CK1D catalytic domain expressed in Escherichia coli cell assessed as substrate phosphorylation using fluorescence-labelled peptides as substrate at […] after 90 mins by microfluidic peptide phosphorylation assay.
Test [14] concerns the target Fibroblast growth factor receptor 4 (Homo sapiens) (UniProt P22455). The experiment in a line: Inhibition of human FGFR4 catalytic domain expressed in baculovirus assessed as substrate phosphorylation using fluorescence-labelled peptides as substrate at 1000 uM after 90 mins by microfluidic peptide phosphorylation assay.
In test [15] the target is T3, Serine/threonine-protein kinase 3 (Homo sapiens) (UniProt Q13188).
T3 sequence (whole entry): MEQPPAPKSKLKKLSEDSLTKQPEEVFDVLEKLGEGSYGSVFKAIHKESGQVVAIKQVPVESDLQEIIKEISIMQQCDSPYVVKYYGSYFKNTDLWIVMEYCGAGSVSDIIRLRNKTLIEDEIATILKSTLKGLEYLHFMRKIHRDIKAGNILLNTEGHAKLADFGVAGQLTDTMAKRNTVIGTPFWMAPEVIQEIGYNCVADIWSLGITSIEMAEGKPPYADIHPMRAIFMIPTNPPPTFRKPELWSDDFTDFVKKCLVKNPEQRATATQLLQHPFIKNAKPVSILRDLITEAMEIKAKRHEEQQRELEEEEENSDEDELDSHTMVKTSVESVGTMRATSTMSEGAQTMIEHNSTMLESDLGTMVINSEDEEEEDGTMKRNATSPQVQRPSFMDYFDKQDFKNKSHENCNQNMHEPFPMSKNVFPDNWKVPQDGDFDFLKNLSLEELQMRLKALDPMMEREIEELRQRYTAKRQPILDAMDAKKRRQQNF
The experiment in a line: Inhibition of human full length MST2 expressed in baculovirus assessed as substrate phosphorylation using fluorescence-labelled peptides as substrate at 0.06 uM after 90 mins by microfluidic peptide phosphorylation assay.

For test [16], the target named is Tyrosine-protein kinase ABL1 (Homo sapiens) (UniProt P00519). The test can be described thus: Inhibition of human full-length ABL expressed in baculovirus assessed as substrate phosphorylation using fluorescence-labelled peptides as substrate at 0.06 uM after 90 mins by microfluidic peptide phosphorylation assay.
For the next test, the species on record is Homo sapiens. The test can be described thus: Inhibition of human full length PKA expressed in baculovirus assessed as substrate phosphorylation using fluorescence-labelled peptides as substrate at 0.06 uM after 90 mins by microfluidic peptide phosphorylation assay.
Test [17] deals with Mitogen-activated protein kinase kinase kinase kinase 4 (Homo sapiens) (UniProt O95819). The test can be described thus: Inhibition of human HGK catalytic domain expressed in baculovirus assessed as substrate phosphorylation using fluorescence-labelled peptides as substrate at 70 uM after 90 mins by microfluidic peptide phosphorylation assay.

The term inhibition denotes the drop in the measured response relative to a control, in per cent.

Mitogen-activated protein kinase 1 (Homo sapiens), sequence (P28482 whole entry, canonical isoform): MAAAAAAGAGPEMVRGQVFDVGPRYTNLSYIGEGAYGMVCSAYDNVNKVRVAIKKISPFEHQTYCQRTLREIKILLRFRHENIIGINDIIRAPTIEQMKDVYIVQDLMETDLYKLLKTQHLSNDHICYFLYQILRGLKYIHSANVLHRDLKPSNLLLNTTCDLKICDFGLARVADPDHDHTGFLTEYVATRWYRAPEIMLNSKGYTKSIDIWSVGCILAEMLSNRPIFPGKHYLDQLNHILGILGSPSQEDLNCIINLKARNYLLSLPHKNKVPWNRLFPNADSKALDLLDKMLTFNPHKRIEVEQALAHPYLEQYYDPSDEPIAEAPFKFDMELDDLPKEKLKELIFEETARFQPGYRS
Fibroblast growth factor receptor 4 (Homo sapiens), sequence (P22455 22-802 limits assumed): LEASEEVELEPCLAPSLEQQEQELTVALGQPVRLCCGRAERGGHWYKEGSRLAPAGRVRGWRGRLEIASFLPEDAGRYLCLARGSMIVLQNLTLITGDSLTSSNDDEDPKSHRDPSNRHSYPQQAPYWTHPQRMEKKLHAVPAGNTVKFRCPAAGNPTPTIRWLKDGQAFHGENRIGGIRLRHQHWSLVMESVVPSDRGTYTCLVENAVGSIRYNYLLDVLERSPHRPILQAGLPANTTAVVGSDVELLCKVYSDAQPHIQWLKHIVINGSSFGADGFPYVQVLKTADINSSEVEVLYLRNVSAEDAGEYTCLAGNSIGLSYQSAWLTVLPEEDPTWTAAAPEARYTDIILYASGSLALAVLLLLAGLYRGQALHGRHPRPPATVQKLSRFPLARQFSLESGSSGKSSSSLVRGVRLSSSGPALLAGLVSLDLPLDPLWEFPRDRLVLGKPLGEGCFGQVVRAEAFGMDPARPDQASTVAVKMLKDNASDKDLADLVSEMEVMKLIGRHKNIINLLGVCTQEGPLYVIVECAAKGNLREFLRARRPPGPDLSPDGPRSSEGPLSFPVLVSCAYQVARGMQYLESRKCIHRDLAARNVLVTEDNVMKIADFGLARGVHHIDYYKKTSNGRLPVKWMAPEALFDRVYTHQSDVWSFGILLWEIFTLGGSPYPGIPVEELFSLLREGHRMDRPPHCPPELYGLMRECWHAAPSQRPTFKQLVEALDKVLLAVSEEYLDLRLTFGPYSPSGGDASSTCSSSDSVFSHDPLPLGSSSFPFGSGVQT
Tyrosine-protein kinase ABL1 (Homo sapiens), sequence (P00519 whole entry): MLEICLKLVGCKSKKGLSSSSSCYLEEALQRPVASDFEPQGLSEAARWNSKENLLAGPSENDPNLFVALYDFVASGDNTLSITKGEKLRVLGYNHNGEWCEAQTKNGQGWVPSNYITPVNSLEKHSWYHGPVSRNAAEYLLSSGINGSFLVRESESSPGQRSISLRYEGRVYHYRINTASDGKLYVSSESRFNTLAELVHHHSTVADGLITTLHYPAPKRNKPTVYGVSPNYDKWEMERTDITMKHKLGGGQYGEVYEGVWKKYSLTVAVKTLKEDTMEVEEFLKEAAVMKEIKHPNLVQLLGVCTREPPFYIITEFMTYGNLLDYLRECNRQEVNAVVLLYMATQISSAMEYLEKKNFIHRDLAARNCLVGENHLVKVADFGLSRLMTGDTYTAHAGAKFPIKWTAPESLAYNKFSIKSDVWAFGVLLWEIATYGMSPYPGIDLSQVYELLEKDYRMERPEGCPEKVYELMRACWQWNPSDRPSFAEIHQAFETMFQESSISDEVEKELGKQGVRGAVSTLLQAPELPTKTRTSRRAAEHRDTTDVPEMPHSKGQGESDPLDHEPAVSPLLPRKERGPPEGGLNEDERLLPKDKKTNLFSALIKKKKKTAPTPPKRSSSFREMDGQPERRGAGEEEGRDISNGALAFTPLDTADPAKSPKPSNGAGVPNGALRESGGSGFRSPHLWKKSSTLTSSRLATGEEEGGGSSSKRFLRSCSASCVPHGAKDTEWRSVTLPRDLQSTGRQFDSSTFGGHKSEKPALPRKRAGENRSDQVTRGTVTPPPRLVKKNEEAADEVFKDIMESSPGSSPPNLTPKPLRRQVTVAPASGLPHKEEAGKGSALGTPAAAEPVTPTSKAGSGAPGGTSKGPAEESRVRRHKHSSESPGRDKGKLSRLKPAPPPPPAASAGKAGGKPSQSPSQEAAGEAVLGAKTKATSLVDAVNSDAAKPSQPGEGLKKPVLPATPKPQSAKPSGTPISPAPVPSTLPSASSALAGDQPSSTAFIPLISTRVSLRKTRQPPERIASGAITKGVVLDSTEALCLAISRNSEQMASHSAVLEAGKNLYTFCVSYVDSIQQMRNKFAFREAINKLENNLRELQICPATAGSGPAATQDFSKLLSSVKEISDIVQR
MAP/microtubule affinity-regulating kinase 3 (Homo sapiens), sequence (P27448 whole entry, looked up, the tested form may be a part): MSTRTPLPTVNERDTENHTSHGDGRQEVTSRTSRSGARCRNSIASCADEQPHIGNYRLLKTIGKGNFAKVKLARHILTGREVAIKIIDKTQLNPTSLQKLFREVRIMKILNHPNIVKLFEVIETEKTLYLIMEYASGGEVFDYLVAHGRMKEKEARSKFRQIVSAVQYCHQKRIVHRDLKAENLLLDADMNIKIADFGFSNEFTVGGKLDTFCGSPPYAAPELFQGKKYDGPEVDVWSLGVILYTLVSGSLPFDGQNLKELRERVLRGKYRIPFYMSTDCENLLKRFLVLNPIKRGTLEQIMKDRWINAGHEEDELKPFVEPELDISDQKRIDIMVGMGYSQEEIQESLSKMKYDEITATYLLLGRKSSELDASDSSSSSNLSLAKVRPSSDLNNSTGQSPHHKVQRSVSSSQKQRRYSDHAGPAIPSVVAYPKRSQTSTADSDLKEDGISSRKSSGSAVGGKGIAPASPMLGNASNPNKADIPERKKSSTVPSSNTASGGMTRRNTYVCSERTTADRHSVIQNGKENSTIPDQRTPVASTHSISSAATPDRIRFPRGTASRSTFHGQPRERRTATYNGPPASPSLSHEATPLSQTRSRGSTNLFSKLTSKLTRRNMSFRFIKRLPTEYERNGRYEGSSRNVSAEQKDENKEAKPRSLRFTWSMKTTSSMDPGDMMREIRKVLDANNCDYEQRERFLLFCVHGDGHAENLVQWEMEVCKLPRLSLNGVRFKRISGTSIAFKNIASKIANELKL
Casein kinase I isoform delta (Homo sapiens), sequence (P48730 whole entry, looked up, the tested form may be a part, canonical isoform): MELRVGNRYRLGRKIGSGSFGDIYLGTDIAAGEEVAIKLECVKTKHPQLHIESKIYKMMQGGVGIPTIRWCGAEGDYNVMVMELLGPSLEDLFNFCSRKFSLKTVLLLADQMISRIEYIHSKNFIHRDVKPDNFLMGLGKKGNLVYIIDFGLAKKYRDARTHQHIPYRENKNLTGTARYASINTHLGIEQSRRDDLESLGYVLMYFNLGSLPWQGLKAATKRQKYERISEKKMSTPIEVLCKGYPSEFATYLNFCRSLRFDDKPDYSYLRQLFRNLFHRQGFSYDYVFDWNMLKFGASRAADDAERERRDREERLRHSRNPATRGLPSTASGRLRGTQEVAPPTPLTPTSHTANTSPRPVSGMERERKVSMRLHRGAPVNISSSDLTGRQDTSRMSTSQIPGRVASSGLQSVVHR
Casein kinase I isoform alpha (Homo sapiens), sequence (P48729 2-337 limits assumed): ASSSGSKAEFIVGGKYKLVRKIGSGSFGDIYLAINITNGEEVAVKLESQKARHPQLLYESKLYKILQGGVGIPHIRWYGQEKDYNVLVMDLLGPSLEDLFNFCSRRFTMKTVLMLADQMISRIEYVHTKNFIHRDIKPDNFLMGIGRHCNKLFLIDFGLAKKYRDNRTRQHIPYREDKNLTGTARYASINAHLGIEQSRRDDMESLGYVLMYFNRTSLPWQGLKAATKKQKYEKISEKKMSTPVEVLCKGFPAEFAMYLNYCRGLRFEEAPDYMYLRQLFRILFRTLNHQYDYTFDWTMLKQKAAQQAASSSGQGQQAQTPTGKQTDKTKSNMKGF
Epidermal growth factor receptor (Homo sapiens), sequence (P00533 whole entry, the tested form may be a part): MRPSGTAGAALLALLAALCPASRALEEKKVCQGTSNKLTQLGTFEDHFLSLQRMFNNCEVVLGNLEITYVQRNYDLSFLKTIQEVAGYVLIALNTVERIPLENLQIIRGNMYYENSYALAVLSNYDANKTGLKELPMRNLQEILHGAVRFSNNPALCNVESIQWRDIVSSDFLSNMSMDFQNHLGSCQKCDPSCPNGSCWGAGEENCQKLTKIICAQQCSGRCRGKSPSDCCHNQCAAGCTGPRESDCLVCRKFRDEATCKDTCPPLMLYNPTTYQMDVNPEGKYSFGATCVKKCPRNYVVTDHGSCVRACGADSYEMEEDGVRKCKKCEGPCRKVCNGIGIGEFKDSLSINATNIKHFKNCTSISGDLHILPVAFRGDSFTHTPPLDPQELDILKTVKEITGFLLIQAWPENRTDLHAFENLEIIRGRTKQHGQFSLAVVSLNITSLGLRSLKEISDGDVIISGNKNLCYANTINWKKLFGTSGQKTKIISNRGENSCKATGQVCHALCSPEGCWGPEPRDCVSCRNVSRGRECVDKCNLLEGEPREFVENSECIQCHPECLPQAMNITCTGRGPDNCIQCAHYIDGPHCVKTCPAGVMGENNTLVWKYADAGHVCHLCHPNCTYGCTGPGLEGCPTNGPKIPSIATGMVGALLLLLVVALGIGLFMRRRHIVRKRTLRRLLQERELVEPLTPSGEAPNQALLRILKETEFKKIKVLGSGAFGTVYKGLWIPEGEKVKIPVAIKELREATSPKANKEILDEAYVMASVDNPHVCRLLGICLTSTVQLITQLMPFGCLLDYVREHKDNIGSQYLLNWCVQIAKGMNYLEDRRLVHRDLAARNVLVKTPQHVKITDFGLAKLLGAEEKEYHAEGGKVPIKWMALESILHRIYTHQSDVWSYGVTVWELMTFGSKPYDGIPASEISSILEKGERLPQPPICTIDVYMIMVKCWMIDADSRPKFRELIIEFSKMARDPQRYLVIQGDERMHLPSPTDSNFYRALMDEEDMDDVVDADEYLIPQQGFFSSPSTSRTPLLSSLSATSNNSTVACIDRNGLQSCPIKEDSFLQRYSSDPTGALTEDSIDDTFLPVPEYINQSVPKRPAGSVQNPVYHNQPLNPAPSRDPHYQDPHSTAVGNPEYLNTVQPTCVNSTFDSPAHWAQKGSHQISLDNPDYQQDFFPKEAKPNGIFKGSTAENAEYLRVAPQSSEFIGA

For the compound `Clc1ccc(C2(c3ccc(-c4ncnc5[nH]cnc45)cc3)CCNCC2)cc1`, in test [1], the inhibition was found to be 73.5%.
The compound `C[C@H](CN(C)C)Oc1nc(Nc2cc3cccc(Cl)c3cn2)cnc1C#N` came in with an inhibition in [2] of 0%.
For `c1nc(N2CCOCC2)c2nc[nH]c2n1`, the inhibition in [3] worked out at 29%; in test [4], 76%; in test [5], 68%; in test [6], 75%; in test [7], 86.5%.
As for `NCCc1ccc(-c2ncnc3[nH]cnc23)cc1`, the figures for the inhibition in [8] and in test [9] were 10% and 13%, respectively.
For the compound `NCC1CN(c2ncnc3[nH]c4cnccc4c23)CCO1` (stereo not drawn), the inhibition was 4.5% in [10], 1.5% in [11] and 13% in test [12].
Consider `COC(=O)c1cnc(Nc2cnc(C#N)cn2)cc1NCC1CCNCC1`, for which the inhibition in test [13] amounted to 10.5%.
Turning to `c1cnc2[nH]ccc2c1`, in test [14], the inhibition was 28.5%.
For the compound `NC1(Cc2ccc(Cl)cc2)CCN(c2ncnc3[nH]ccc23)CC1`, the inhibition in [15] worked out at 3%; in test [16] it was 13%; in the test listed under Homo sapiens, 17%.
Regarding `CNCc1ccc(-c2ncnc3[nH]cnc23)cc1`, the inhibition in [17] turned out to be 42%.
